Source: patent US7994365B2, “Basic acetophenones as inhibitors of NO-synthases” (Christian-Albrechts-Universitaet Zu Kiel, priority 2006, dated 2011)
Where a name gives a salt, the structure may show the parent alone.

Target: T1, bNOS (Homo sapiens, UniProt P29475)
T1 construct: purchased Axxora GmbH
Assay: Griess assay: NO-synthase converts L-arginine to L-citrullin and NO, activity measured by nitrite formation
Format: biochemical
Details: maximum inhibition reached; recombinant human isoenzyme, 30 min at 37° C., controls without inhibitor = 100%
Procedure: Although the compound is known from the literature Niwa, H., 1957, Tohoku Yakka Daigaku, 4, 69-78), as yet no NOS-inhibiting action has been described.
In both FIGS. 1 and 2 the bNOS activity is measured by means of nitrite formation. Nitrite is the end product of nitrogen monoxide in oxygen-containing, aqueous solution. Control incubations with all the cofactors, but without inhibitor addition, were 100% established. These are mean values +/− standard deviation of three incubations, in each case measured twice.
The incubations of the synthesized substances with the NO-synthases were carried out as follows: […]
Following preparation, the batches were incubated for 20 min (iNOS and eNOS) or 30 min (bNOS) in the shaking water bath at 37° C. […] After incubating for […] at room temperature, the solutions were measured at a wavelength of 543 nm and the indicated non-enzyme-containing sample was used as the blank reading. […] The nitrite can be quantitatively determined by reaction with sulphanilamide and naphthyl ethylene diamine in an acid medium. This leads to an azo dye, which can be measured spectrophotometrically. […] The relative nitrite formations were determined for the control batches containing no inhibitors. […]

T1 sequence (P29475 whole entry): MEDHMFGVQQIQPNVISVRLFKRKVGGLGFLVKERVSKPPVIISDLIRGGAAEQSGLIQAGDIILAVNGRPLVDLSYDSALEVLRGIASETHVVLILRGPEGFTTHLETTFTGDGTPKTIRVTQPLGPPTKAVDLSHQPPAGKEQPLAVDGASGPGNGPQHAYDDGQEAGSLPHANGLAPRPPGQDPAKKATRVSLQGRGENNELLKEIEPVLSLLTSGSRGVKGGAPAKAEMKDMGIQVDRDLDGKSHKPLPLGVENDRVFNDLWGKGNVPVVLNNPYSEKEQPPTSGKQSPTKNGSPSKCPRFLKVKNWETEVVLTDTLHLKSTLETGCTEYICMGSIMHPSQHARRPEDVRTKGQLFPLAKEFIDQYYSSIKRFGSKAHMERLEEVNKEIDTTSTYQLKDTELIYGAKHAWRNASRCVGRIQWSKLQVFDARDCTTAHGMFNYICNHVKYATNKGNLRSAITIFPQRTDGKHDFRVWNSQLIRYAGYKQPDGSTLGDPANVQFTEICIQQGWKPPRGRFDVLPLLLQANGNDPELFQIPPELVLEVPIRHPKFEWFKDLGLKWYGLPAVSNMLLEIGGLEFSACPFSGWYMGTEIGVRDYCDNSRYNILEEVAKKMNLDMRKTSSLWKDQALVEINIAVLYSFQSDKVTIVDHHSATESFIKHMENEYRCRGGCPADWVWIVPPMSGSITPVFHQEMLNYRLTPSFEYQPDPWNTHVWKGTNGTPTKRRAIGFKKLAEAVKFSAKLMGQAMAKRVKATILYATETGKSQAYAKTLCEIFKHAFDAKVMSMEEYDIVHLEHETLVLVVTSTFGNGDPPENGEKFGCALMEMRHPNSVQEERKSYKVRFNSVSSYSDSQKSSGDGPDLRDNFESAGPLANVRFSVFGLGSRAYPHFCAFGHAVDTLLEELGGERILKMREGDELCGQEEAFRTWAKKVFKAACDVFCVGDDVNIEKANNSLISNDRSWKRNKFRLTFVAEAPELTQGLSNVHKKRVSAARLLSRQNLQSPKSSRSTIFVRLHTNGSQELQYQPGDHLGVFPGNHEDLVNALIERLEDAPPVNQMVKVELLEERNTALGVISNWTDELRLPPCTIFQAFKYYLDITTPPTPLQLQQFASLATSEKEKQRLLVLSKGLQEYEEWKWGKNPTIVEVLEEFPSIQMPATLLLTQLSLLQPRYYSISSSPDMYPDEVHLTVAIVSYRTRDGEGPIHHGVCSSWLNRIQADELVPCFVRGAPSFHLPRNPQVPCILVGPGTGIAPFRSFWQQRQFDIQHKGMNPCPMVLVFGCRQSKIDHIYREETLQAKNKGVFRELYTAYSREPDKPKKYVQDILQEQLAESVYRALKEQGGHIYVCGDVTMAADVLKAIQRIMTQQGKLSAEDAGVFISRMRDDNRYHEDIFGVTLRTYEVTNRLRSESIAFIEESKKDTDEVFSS

Row | concentration-dependent inhibition of bNOS | SMILES
1 | up to 88% | CN(C)CCC(=O)c1ccc(-c2ccc(Br)cc2)cc1 [4′-(4-bromophenyl)-3-dimethylaminopropiophenone hydrochloride]
2 | up to 99% | CN(C)CCCC(=O)c1ccc(-c2ccc(Br)cc2)cc1 [4′-(4-bromophenyl)-4-dimethylaminobutyrophenone hydrochloride]
